Source: patent US11999971B2, “Stem cell derived islet differentiation” (Vertex Pharmaceuticals Incorporated, priority 2018, dated 2024)

What was measured:
Assay type in all cases: cell-based, human
[1] = system: Pdx1 expressing pancreatic progenitor cells (Stage 4/Stage 5 differentiation); assay: TNKS/Wnt inhibitor in Stage 4 and/or Stage 5 medium; cell composition at end of Stage 5
Description: (§1) In certain embodiments described herein, induced pluripotent stem cells are differentiated into SC-Di cells or precursors thereof in vitro. An exemplary differentiation protocol is outlined in FIG. 39. Endocrine progenitor cells produced by Stage 5 can comprise a mixture of cell types. For example, the composition can include NKX6.1+/ISL1+β cells, NKX6.1−/ISL1+α cells, NKX6.1−/ISL1− double negative cells, and enterochromaffin (EC) cells (FIG. 18B and FIG. 18C). For example, FIG. 18B and FIG. 18C show a Stage 5 process intermediate cell composition that comprises about 25% NKX6.1+/ISL1+β cells, about 14.5% NKX6.1−/ISL1+α cells, about 42.4% NKX6.1−/ISL1− double negative cells, and about 18.0% enterochromaffin (EC) cells. For certain applications described herein, such as the production of SC-islets, both NKX6.1−/ISL1− double negative (DN)SC-cells and SC-enterochromaffin (EC) cells are off target cell populations. To improve the Stage 5 cellular composition (e.g., increased percentage of NKX6.1+/ISL1+ SC-β cells and NKX6.1−/ISL1+ SC-α cells; decreased percentage of NKX6.1−/ISL1− SC-DN cells and SC-EC cells), modifications to the Stage 4 and/or Stage 5 medium were evaluated (FIG. 19).
As shown in FIGS. 20A-20B and FIGS. 21A-21B, TNKS/Wnt inhibition during Stage 4 increased the percentage of NKX6.1+/ISL1+β cells (FIG. 21A; FIGS. 20A-20B) and decreased the percentage of NKX6.1−/ISL1− double negative cells (FIG. 21B; FIGS. 20A-20B) at the end of stage 5. Multiple TNKS/Wnt inhibitors that increase the percentage of NKX6.1+/ISL1+β cells at the end of Stage 5 at least two-fold over the control were identified (FIG. 28).
FIGS. 30A-30B show TNKS inhibition increases the percentage of NKX6.1+/ISL1+SC-β cells and decreases the percentage of NKX6.1−/ISL1− SC-DN cells at the end of Stage 5 when TNK inhibitor is used through several times points through Stage 4 or Stage 4 through Stage 5, including S4d3-S4d6, S4d3-S5d2, S4d5-S4d6, and S4d5-S5d2.

[2] = system: Pdx1 expressing pancreatic progenitor cells (Stage 4 differentiation); assay: PKC inhibitor in modified stage 4 medium during S4d5-S4d6; cell composition at end of Stage 5; details: for change in percentage of NKX6.1+/ISL1+ β cells at the end of Stage 5: FIG. 33A; for change in percentage of NKX6.1+/ISL1− SC-EC cells at the end of Stage 5: FIG. 33B
[3] = system: Pdx1 expressing pancreatic progenitor cells (Stage 4/Stage 5 differentiation); assay: PKC activator in Stage 4 and/or Stage 5 medium; FACS analysis of cell composition at end of Stage 5
Description: as §1
To further improve the Stage 5 cellular composition (e.g., increased percentage of NKX6.1+/ISL1+β cells and NKX6.1−/ISL1+α cells; decreased percentage of NKX6.1−/ISL1− double negative cells and enterochromaffin (EC) cells), further modifications to the Stage 4 and/or Stage 5 medium were evaluated (FIG. 19).
As shown in FIGS. 25A-25B and FIG. 27, PKC activation (0.5 μM phorbol 12,13-dibutyrate) during Stage 4 decreases the percentage of VMAT1+ SC-EC cells at the end of Stage 5 from 24.8% to 4.9%.
FIGS. 35A-35B show PKC activation increases the percentage of NKX6.1−/ISL1+ SC-α cells and decreases the percentage of NKX6.1+/ISL1− SC-EC cells at the end of Stage 5 when a PKC activator is used through several times points through Stage 4 or Stage 4 through Stage 5, including S4d3-S4d6, S4d3-S5d2, S4d5-S4d6, and S4d5-S5d2.

Cc1cc(N2C[C@@H](C)N[C@@H](C)C2)ncc1-c1ccc(-c2nc3c(ccn3C)c(=O)[nH]2)cc1 [AZ6102]
change in percentage of NKX6.1+/ISL1+ SC-β cells at the end of stage 5 vs control ([1]; 0.5 μM during S4d5-S4d6, FACS, FIG. 30A): increased
change in percentage of NKX6.1+/ISL1+ SC-β cells at the end of stage 5 vs control ([1]; 0.5 μM during Stage 4 or Stage 5, FIG. 31A): increased
change in percentage of NKX6.1−/ISL1− SC-DN cells at the end of stage 5 vs control ([1]; 0.5 μM during Stage 4 or Stage 5, FIG. 31B): decreased

COc1ccc2c(c1)c(C1=C(c3c[nH]c4ccccc34)C(=O)NC1=O)cn2CCCN(C)C [Go 6983]
change in percentage of NKX6.1+/ISL1+ β cells at the end of Stage 5 [2]: decrease
change in percentage of NKX6.1+/ISL1− SC-EC cells at the end of Stage 5 [2]: decrease

Cn1cc(C2=C(c3cn(CCCSC(=N)N)c4ccccc34)C(=O)NC2=O)c2ccccc21 [Ro 31-8220]
change in percentage of NKX6.1+/ISL1+ β cells at the end of Stage 5 [2]: decrease
change in percentage of NKX6.1+/ISL1− SC-EC cells at the end of Stage 5 [2]: decrease

CN1CCN(c2nc(C3=C(c4c[nH]c5ccccc45)C(=O)NC3=O)c3ccccc3n2)CC1 [Sotrastaurin]
change in percentage of NKX6.1+/ISL1+ β cells at the end of Stage 5 [2]: decrease
change in percentage of NKX6.1+/ISL1− SC-EC cells at the end of Stage 5 [2]: decrease

CCCC(=O)O[C@@H]1[C@@H](C)[C@@]2(O)[C@@H](C=C(CO)C[C@]3(O)C(=O)C(C)=C[C@@H]23)[C@@H]2C(C)(C)[C@]12OC(=O)CCC [phorbol 12,13-dibutyrate, Phorbol 12,13-dibutyrate]
percentage of NKX6.1+/ISL1− SC-EC cells at the end of Stage 5 ([3]; 0.5 μM during S4d5-S5d2, control 32.1%): 14.7%
percentage of NKX6.1−/ISL1+ SC-α cells at the end of Stage 5 ([3]; 0.5 μM during S4d5-S5d2, control printed 1 1.3%): 38.2%
percentage of glucagon+ SC-α cells at the end of Stage 5 ([3]; 0.5 μM during Stage 4, control 5.7%): 23.7%
percentage of ARX+ SC-α cells at the end of Stage 5 ([3]; 0.5 μM during Stage 4, control 10.4%): 38.4%
percentage of VMAT1+ SC-EC cells at the end of Stage 5 ([3]; 0.5 μM during Stage 4, control 24.8%): 4.9%
percentage of CDX2+ SC-EC cells at the end of Stage 5 ([3]; 0.5 μM during Stage 4, control 66.4%): 21.5%
change in percentage of glucagon positive SC-α cells at the end of stage 5 vs control ([3]; 0.5 μM during stage 4, FACS, FIG. 23): increased
change in percentage of ARX positive SC-α cells at the end of stage 5 vs control ([3]; 0.5 μM during stage 4, FACS, FIG. 24): increased
change in percentage of VMAT1 positive SC-EC cells at the end of stage 5 vs control ([3]; 0.5 μM during stage 4, FACS, FIG. 25): decreased
change in percentage of CDX2 positive SC-EC cells at the end of stage 5 vs control ([3]; 0.5 μM during stage 4, FACS, FIG. 26): decreased
